# In the NIST ThermoML archive (doi:10.1021/je900410j):
# ± gives the expanded uncertainty stated by the source.
# Conditions: Crystal; DTA
row,Normal melting temperature [°C],SMILES
1,55.41 ± 0.53,CCCCCCCCCCCCCC(=O)O [tetradecanoic acid]
2,70.23 ± 0.53,CCCCCCCCCCCCCCCCCC(=O)O [octadecanoic acid]
3,9.60 ± 0.53,"CCCCCCCC(=O)OCC(COC(=O)CCCCCCC)OC(=O)CCCCCCC [1,2,3-propanetriol trioctanoate]"
4,63.32 ± 0.53,CCCCCCCCCCCCCCCC(=O)O [hexadecanoic acid]
5,5.27 ± 0.53,"CCCCCCCC/C=C\CCCCCCCC(=O)OCC(COC(=O)CCCCCCC/C=C\CCCCCCCC)OC(=O)CCCCCCC/C=C\CCCCCCCC [1,2,3-tri(cis-9-octadecenoyl)glycerol]"
6,-22.0 ± 0.53,CC/C=C\C/C=C\C/C=C\CCCCCCCC(=O)OCC(COC(=O)CCCCCCC/C=C\C/C=C\C/C=C\CC)OC(=O)CCCCCCC/C=C\C/C=C\C/C=C\CC [trilinolenin]
